Test results reported in ChEMBL document CHEMBL4507278 (2021).

What was measured:
[1] = biological target: Ephrin type-B receptor 1 (Homo sapiens) (UniProt P54762); conditions: Compound concentration 1000.0 nM
[2] = biological target: T1, Alpha-2A adrenergic receptor (Homo sapiens) (UniProt P08913); conditions: Compound concentration 10.0 uM
T1 sequence (whole entry): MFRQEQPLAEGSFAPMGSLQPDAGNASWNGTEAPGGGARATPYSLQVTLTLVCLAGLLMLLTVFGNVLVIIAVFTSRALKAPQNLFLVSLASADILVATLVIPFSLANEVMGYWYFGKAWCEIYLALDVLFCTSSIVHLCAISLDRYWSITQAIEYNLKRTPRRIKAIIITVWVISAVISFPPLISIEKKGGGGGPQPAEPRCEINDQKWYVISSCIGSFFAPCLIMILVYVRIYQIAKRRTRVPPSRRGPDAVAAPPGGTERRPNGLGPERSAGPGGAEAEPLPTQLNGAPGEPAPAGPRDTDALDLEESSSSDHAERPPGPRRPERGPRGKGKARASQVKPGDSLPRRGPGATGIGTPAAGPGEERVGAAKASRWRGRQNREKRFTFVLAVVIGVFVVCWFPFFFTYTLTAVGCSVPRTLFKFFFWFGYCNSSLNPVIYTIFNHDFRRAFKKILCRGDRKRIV

[3] = test system: Tyrosine-protein kinase ABL1 (Homo sapiens), P00519 [Q252H]; conditions: Compound concentration 1000.0 nM
[4] = biological target: NUAK family SNF1-like kinase 1 (Homo sapiens) (UniProt O60285); conditions: Compound concentration 1000.0 nM
[5] = test system: Tyrosine-protein kinase ABL1 (Homo sapiens), P00519 [F317I]; conditions: Compound concentration 1000.0 nM
[6] = biological target: Ephrin type-A receptor 1 (Homo sapiens) (UniProt P21709); conditions: Compound concentration 1000.0 nM
[7] = biological target: Serine/threonine-protein kinase ULK1 (Homo sapiens) (UniProt O75385); conditions: Compound concentration 1000.0 nM
[8] = test system: Phosphatidylinositol 4,5-bisphosphate 3-kinase catalytic subunit alpha isoform (Homo sapiens), P42336 [H1047Y]; conditions: Compound concentration 1000.0 nM
[9] = biological target: cAMP-dependent protein kinase catalytic subunit PRKX (Homo sapiens) (UniProt P51817); conditions: Compound concentration 1000.0 nM
[10] = test system: Phosphatidylinositol 4,5-bisphosphate 3-kinase catalytic subunit alpha isoform (Homo sapiens), P42336 [M1043I]; conditions: Compound concentration 1000.0 nM
[11] = biological target: Myosin-IIIa (Homo sapiens) (UniProt Q8NEV4); conditions: Compound concentration 1000.0 nM
[12] = biological target: Mitogen-activated protein kinase 1 (Homo sapiens) (UniProt P28482); conditions: Compound concentration 1000.0 nM
[13] = biological target: MAP kinase-activated protein kinase 5 (Homo sapiens) (UniProt Q8IW41); conditions: Compound concentration 1000.0 nM
[14] = biological target: Serine/threonine-protein kinase D1 (Homo sapiens) (UniProt Q15139); conditions: Compound concentration 1000.0 nM
[15] = biological target: Cyclin-dependent kinase 2 (Homo sapiens) (UniProt P24941); conditions: Compound concentration 1000.0 nM
[16] = biological target: Tyrosine-protein kinase TXK (Homo sapiens) (UniProt P42681); conditions: Compound concentration 1000.0 nM
[17] = test system: Mast/stem cell growth factor receptor Kit (Homo sapiens), P10721 [D816V]; conditions: Compound concentration 1000.0 nM
[18] = biological target: Tyrosine-protein kinase Tec (Homo sapiens) (UniProt P42680); conditions: Compound concentration 1000.0 nM
[19] = biological target: Casein kinase I isoform alpha (Homo sapiens) (UniProt P48729); conditions: Compound concentration 1000.0 nM
[20] = biological target: Mitogen-activated protein kinase 12 (Homo sapiens) (UniProt P53778); conditions: Compound concentration 1000.0 nM
[21] = biological target: Serine/threonine-protein kinase 33 (Homo sapiens) (UniProt Q9BYT3); conditions: Compound concentration 1000.0 nM
[22] = biological target: Serine/threonine-protein kinase haspin (Homo sapiens) (UniProt Q8TF76); conditions: Compound concentration 1000.0 nM
[23] = biological target: Mitogen-activated protein kinase kinase kinase 14 (Homo sapiens) (UniProt Q99558); conditions: Compound concentration 1000.0 nM
[24] = biological target: Calcium/calmodulin-dependent protein kinase kinase 1 (Homo sapiens) (UniProt Q8N5S9); conditions: Compound concentration 1000.0 nM
[25] = test system: Phosphatidylinositol 4,5-bisphosphate 3-kinase catalytic subunit alpha isoform (Homo sapiens), P42336 [E545K]; conditions: Compound concentration 1000.0 nM
[26] = biological target: Tyrosine-protein kinase JAK1 (Homo sapiens) (UniProt P23458); conditions: Compound concentration 1000.0 nM
[27] = biological target: Mitogen-activated protein kinase kinase kinase 9 (Homo sapiens) (UniProt P80192); conditions: Compound concentration 1000.0 nM
[28] = biological target: Mitogen-activated protein kinase kinase kinase kinase 1 (Homo sapiens) (UniProt Q92918); conditions: Compound concentration 1000.0 nM
[29] = biological target: Alpha-2C adrenergic receptor (Homo sapiens) (UniProt P18825); conditions: Compound concentration 10.0 uM
[30] = biological target: Epidermal growth factor receptor (Homo sapiens) (UniProt P00533); conditions: Compound concentration 1000.0 nM
[31] = biological target: Mitogen-activated protein kinase 3 (Homo sapiens) (UniProt P27361); conditions: Compound concentration 1000.0 nM
[32] = biological target: Wee1-like protein kinase 2 (Homo sapiens) (UniProt P0C1S8); conditions: Compound concentration 1000.0 nM
[33] = test system: Epidermal growth factor receptor (Homo sapiens), P00533 [G719C]; conditions: Compound concentration 1000.0 nM
[34] = biological target: Cyclin-dependent kinase 19 (Homo sapiens) (UniProt Q9BWU1); conditions: Compound concentration 1000.0 nM
[35] = biological target: Serine/threonine-protein kinase MRCK alpha (Homo sapiens) (UniProt Q5VT25); conditions: Compound concentration 1000.0 nM
[36] = biological target: G protein-coupled receptor kinase 3 (Homo sapiens) (UniProt P35626); conditions: Compound concentration 1000.0 nM
[37] = biological target: Cyclin-dependent kinase 13 (Homo sapiens) (UniProt Q14004); conditions: Compound concentration 1000.0 nM
[38] = biological target: 5'-AMP-activated protein kinase catalytic subunit alpha-1 (Homo sapiens) (UniProt Q13131); conditions: Compound concentration 1000.0 nM
[39] = biological target: Serine/threonine-protein kinase STK11 (Homo sapiens) (UniProt Q15831); conditions: Compound concentration 1000.0 nM

Chain of Serine/threonine-protein kinase ULK1 (Homo sapiens) (O75385 whole entry, canonical isoform): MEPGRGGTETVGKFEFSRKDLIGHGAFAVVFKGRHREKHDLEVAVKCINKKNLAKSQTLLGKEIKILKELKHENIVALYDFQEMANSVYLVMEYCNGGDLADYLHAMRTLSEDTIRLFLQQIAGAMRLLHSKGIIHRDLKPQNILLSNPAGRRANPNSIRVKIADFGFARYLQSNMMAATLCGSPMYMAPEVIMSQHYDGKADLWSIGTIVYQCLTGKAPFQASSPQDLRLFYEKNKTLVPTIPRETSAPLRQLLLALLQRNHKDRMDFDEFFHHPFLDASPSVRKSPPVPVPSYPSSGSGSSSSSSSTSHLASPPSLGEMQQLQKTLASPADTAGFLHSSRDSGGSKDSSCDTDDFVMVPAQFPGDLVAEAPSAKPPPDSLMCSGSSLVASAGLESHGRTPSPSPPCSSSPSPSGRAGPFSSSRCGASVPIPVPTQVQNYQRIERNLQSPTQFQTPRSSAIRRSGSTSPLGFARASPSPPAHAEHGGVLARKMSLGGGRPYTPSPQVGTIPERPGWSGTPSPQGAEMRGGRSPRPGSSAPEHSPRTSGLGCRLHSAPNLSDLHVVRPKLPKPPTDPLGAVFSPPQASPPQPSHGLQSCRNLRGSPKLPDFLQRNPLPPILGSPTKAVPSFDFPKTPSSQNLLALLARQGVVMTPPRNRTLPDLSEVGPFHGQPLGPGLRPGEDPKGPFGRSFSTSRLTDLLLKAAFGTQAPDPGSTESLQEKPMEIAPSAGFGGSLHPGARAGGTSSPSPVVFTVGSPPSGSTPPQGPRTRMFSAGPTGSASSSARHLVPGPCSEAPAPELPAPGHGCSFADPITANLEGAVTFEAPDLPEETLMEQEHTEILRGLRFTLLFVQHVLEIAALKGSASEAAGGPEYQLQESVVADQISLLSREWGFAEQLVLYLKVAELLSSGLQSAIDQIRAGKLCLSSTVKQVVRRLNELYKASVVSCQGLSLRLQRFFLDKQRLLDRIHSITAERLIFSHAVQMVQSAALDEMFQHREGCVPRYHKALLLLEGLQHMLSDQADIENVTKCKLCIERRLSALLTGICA
Chain of MAP kinase-activated protein kinase 5 (Homo sapiens) (Q8IW41 whole entry): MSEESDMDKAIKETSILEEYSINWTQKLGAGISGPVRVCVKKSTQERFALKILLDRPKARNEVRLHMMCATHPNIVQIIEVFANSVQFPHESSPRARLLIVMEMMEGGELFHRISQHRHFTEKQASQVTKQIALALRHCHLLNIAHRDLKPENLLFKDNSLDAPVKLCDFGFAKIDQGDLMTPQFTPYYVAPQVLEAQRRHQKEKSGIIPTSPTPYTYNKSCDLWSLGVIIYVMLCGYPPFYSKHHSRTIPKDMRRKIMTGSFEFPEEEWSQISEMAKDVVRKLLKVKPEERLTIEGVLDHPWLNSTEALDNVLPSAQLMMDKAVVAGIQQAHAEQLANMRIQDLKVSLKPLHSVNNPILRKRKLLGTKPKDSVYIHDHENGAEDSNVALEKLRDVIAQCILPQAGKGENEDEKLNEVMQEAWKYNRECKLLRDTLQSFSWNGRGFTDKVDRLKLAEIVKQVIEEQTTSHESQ
Chain of Serine/threonine-protein kinase 33 (Homo sapiens) (Q9BYT3 whole entry, looked up): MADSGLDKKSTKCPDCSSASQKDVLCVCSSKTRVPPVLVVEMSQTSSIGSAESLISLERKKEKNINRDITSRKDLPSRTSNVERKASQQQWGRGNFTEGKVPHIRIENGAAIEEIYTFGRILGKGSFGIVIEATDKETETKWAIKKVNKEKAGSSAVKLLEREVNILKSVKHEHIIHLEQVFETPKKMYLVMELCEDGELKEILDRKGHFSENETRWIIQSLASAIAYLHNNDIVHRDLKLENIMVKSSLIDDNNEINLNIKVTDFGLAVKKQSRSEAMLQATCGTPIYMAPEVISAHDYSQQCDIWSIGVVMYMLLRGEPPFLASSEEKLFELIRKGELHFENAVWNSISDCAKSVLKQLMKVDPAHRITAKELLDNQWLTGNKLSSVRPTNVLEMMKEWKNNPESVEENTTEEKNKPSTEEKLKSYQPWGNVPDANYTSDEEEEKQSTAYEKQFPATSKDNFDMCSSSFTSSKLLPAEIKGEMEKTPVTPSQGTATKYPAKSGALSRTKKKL
Chain of Serine/threonine-protein kinase D1 (Homo sapiens) (Q15139 whole entry): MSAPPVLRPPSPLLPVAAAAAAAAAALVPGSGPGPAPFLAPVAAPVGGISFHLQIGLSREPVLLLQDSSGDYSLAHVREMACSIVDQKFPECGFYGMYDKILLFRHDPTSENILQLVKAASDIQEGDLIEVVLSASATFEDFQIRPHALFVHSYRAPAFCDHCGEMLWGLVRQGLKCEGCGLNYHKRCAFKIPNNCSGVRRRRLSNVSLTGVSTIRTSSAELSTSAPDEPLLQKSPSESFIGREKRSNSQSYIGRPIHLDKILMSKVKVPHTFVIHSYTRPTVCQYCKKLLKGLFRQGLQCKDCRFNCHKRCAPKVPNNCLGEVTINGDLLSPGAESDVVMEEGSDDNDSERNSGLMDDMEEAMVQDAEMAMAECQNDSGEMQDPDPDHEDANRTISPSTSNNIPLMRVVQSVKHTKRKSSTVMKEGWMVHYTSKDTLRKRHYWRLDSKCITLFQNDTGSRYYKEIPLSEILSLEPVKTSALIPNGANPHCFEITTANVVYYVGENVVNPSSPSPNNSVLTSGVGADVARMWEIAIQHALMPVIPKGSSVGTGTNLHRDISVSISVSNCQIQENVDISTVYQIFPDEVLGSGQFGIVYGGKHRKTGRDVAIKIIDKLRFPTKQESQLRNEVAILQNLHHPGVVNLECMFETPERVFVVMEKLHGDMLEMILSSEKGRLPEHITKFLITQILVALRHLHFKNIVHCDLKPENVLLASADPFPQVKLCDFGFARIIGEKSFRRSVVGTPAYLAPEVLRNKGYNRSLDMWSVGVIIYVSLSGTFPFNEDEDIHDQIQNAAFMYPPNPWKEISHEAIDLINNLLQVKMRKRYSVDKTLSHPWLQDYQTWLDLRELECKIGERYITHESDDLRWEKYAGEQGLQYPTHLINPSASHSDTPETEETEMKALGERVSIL
Chain of Phosphatidylinositol 4,5-bisphosphate 3-kinase catalytic subunit alpha isoform (Homo sapiens), P42336 [H1047Y] (P42336 whole entry H1047Y, canonical isoform): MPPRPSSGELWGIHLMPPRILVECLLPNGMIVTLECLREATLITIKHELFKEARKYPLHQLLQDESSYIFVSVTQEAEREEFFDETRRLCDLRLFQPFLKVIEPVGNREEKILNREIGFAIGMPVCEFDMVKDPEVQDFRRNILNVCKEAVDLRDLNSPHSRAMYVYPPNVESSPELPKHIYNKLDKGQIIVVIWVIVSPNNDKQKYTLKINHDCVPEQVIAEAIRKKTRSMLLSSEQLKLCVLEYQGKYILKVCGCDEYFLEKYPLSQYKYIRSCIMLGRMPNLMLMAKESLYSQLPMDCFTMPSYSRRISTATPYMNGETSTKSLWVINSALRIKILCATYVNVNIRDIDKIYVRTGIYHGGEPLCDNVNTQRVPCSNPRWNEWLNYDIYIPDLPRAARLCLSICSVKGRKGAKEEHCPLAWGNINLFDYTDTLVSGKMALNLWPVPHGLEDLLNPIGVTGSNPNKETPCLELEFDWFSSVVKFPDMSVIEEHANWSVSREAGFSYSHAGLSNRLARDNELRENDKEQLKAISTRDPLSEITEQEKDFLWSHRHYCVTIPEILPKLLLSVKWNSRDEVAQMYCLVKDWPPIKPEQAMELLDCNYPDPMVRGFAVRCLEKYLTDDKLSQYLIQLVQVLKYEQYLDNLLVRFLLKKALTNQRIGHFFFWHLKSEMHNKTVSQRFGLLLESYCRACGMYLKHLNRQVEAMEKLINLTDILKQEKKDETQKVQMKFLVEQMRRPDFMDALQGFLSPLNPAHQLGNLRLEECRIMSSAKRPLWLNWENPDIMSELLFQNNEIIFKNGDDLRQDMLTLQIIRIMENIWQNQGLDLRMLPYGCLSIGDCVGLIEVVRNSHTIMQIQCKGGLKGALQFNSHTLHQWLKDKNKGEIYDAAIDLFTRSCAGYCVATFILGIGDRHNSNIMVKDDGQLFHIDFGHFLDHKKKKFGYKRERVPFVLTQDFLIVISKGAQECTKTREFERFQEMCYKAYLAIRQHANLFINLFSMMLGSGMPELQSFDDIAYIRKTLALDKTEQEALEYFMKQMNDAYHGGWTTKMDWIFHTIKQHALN
Chain of Mast/stem cell growth factor receptor Kit (Homo sapiens), P10721 [D816V] (P10721 whole entry D816V): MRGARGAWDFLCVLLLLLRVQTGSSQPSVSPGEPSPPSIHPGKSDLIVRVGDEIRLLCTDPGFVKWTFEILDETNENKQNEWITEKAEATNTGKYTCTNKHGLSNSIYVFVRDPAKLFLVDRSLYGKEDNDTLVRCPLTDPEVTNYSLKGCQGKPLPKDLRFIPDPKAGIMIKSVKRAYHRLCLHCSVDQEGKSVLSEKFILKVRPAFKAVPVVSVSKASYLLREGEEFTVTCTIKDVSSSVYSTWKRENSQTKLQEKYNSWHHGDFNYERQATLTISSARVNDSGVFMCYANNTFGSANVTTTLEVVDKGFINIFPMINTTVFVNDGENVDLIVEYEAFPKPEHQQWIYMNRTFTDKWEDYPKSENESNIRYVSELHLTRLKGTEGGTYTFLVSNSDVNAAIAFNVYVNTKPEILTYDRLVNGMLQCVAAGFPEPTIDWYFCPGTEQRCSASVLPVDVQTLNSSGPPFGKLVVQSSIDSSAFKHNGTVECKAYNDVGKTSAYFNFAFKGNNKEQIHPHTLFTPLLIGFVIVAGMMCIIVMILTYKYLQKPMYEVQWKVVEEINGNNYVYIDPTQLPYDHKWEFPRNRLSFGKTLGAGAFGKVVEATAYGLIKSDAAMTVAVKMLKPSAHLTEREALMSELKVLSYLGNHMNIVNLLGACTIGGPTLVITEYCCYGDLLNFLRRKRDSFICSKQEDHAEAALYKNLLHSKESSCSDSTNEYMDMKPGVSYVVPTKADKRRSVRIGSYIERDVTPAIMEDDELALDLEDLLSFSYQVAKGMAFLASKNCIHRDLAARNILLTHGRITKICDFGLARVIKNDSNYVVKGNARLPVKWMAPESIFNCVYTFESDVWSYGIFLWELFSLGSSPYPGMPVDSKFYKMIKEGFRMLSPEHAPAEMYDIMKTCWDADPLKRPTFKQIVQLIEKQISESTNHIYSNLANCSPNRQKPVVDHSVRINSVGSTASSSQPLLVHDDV

CS(=O)(=O)NCC[C@H](NC(=O)c1cncc2c1cnn2-c1ccc(F)cc1)c1ccnc(S(C)(=O)=O)c1 [BI 9307]
inactive: residual activity [1] 88% | inhibition [2] 3.49% | residual activity [3] 81% | residual activity [4] 85% | residual activity [5] 94% | residual activity [6] 100% | residual activity [7] 100% | residual activity [8] 100% | residual activity [9] 100% | residual activity [10] 95% | residual activity [11] 93% | residual activity [12] 100% | residual activity [13] 100% | residual activity [14] 92% | residual activity [15] 100% | residual activity [16] 84% | residual activity [17] 94% | residual activity [18] 96% | residual activity [19] 100% | residual activity [20] 100% | residual activity [21] 87% | residual activity [22] 100% | residual activity [23] 100% | residual activity [24] 100% | residual activity [25] 78% | residual activity [26] 96% | residual activity [27] 97% | residual activity [28] 95% | inhibition [29] -2.08% | residual activity [30] 84% | residual activity [31] 97% | residual activity [32] 100% | residual activity [33] 99% | residual activity [34] 80% | residual activity [35] 100% | residual activity [36] 100% | residual activity [37] 100% | residual activity [38] 100% | residual activity [39] 100%

CS(=O)(=O)c1cc(C2(NC(=O)c3cncc4c3cnn4-c3ccc(F)cc3)CC2)ccn1 [BI 639667]
inactive: residual activity [1] 91% | inhibition [2] -2.44% | residual activity [3] 80% | residual activity [4] 91% | residual activity [5] 79% | residual activity [6] 100% | residual activity [7] 100% | residual activity [8] 100% | residual activity [9] 85% | residual activity [10] 93% | residual activity [11] 85% | residual activity [12] 94% | residual activity [13] 87% | residual activity [14] 100% | residual activity [15] 94% | residual activity [16] 89% | residual activity [17] 100% | residual activity [18] 99% | residual activity [19] 96% | residual activity [20] 100% | residual activity [21] 90% | residual activity [22] 90% | residual activity [23] 61% | residual activity [24] 76% | residual activity [25] 74% | residual activity [26] 96% | residual activity [27] 100% | residual activity [28] 89% | inhibition [29] -6.8% | residual activity [30] 100% | residual activity [31] 100% | residual activity [32] 100% | residual activity [33] 100% | residual activity [34] 91% | residual activity [35] 100% | residual activity [36] 100% | residual activity [37] 100% | residual activity [38] 99% | residual activity [39] 100%
